Measured values published in PMC7450492 (Molecular cancer therapeutics, 2020).
In brackets after ≈: the same amount, converted by molar mass. Entries after “also recorded” stand apart in the source; their conditions may differ.

Experiments:
Syk = Syk (Homo sapiens, UniProt P43405); assay: cell free enzymatic inhibition of Syk; type: biochemical; conditions: read-out: Syk inhibitory activity IC50; cell free system
[1] = system: PI3K isoforms p110α, p110β, p110γ and p110δ; assay: cell free enzymatic inhibition of PI3K isoforms; type: biochemical; conditions: in vitro
p-AKT = p-AKT blockade; type: cell-based; conditions: 10 µM conc.
[2] = PK in mice, i.v. and oral; type: in vivo, mouse; conditions: prototype formulation, preliminary
solubility in water = type: physicochemical
metabolic stability = type: in vitro ADME
LLC tumors [3] = assay: LLC syngeneic tumor in WT mice; type: in vivo; conditions: for infiltration of CD8+ T cells in LLC tumors: treated LLC tumors
T cells = assay: T cell proliferation ex vivo; type: cell-based, mouse
CT26 tumor = CT26 tumor in NSG or Balb/c mice; type: in vivo, mouse
LLC tumors [4] = assay: LLC tumors in Syk^MC-KO mice; type: in vivo, mouse
[5] = system: immunosuppressive gene expression in MΦ; assay: immunosuppressive MΦ polarization, gene expression; type: cell-based; conditions: very low dose, compared to IPI-549 or R488 alone
LLC tumor = LLC tumor with macrophage depletion by anti-CSF1R; type: in vivo, mouse; conditions: macrophage depleted mice
LLC cells = assay: viability of LLC cells; type: cell-based, mouse
B16-OVA tumor = B16-OVA tumor in C57BL/6 mice; type: in vivo, mouse

SMILES | IC50 (Syk) [nM] | PI3K inhibitory potency [1] | p-AKT blockade (p-AKT) | half-life ([2]; 5mg/kg IV and 15 mg/kg PO) | bioavailability ([2]; oral 15 mg/kg PO vs 5mg/kg IV) | solubility in water (solubility in water) [µM] | CLint (metabolic stability) [µL/min/mg protein] | toxicity in tumor-bearing mice (LLC tumors [3]; 10 mg/kg dose) | LLC tumor growth and survival (LLC tumors [3]; 10 mg/kg oral, WT mice, compared to IPI549 and R788 at similar doses) | infiltration of CD8+ T cells in LLC tumors (LLC tumors [3]) | T cell proliferation (T cells) | CT26 tumor growth in Balb/c mice (CT26 tumor; Balb/c mice) | CT26 tumor growth in NSG mice (CT26 tumor; NSG mice) | LLC tumor growth in Syk^MC-KO mice (LLC tumors [4]) | immunosuppressive gene expression [5] | LLC tumor growth, combination with anti-CSF1R (CD115) antibody (LLC tumor) | tumor growth and metastasis (LLC tumors [3]; LLC, WT mice, 40 mg/kg R788 orally, vs vehicle) | viability of LLC cells (LLC cells) | OVA specific CD8+ T cells in tumor draining lymph nodes (B16-OVA tumor; B16-OVA, H-2K^b SIINFEKL tetramers) | B16-OVA tumor growth (B16-OVA tumor; C57BL/6 mice, R788 40 mg/kg, anti-PDL1 200µg, 40 mg/kg)
Cc1nn(-c2ccnc(Nc3ccc(-c4csc5c(=O)cc(N6CCOCC6)oc45)cc3)n2)cc1CN1CCC1 [SRX3207] | 30 | acceptable PI3K inhibitory properties | able to block | about 5 hours | around 2% | 43 (≈ 23.9 µg/mL) | 74 | without toxicity | blocked tumor growth and increased survival effectively | increased infiltration | didn’t affect | blocked tumor growth | didn’t block | significantly decreased | potently blocks | no additive effects |  |  |  | 
C[C@H](NC(=O)c1c(N)nn2cccnc12)c1cc2cccc(C#Cc3cnn(C)c3)c2c(=O)n1-c1ccccc1 [IPI549] |  |  |  |  |  |  |  |  |  |  |  |  |  | significantly decreased |  |  |  |  |  | 
COc1cc(Nc2ncc(F)c(Nc3ccc4c(n3)N(COP(=O)(O)O)C(=O)C(C)(C)O4)n2)cc(OC)c1OC [R788, Fostamatinib] |  |  |  |  |  |  |  |  |  | increased infiltration | no effect |  |  | didn’t show additive reduction |  | no additive effects | significantly suppressed | no effect | increased | significantly blocked tumor growth; also recorded: substantially inhibited
